We go through four compounds from patent US20220132857A1, “Disinfecting Composition and Related Methods” (priority 2020, published 2022).

Molecules are shown by their SMILES. Like-named read-outs stand apart in the source and are kept apart here. A value given as a limit tells only on which side of the number the result lay.

In experiment [1] the test system is residual ATP (ATP-containing contamination including bacteria). Kind of experiment: ATP bioluminescence disinfection efficacy on polyester fabric contaminated with collected water. As to conditions: 5 ml dropwise, after 5 minutes, before treatment Area 1: 243, Area 2: 291.
From the text: Bioluminescence is a practical and simple method used to quickly assess the bio-contamination of surfaces. The method has been developed based on the biochemical adenosine triphosphate (“ATP”), which is the energy molecule of all the living organisms, luciferin/luciferase, and oxygen. The reaction results in a light-emitting decay which can be detected and related to the amount of ATP.
The luminometer (in conjunction with ATP swabs) uses bioluminescence to detect residual ATP as an indicator of surface cleanliness. The presence of ATP on a surface indicates incomplete cleaning and the presence of ATP-containing contamination including bacteria.
Test results are presented as Relative Light Units (“RLU”). RLU is the unit of measurement used in bioluminescence. When a test swab is activated, a bioluminescent reaction occurs, generating light output. Luminometers measure and quantify that light with an RLU output. […]
The relationship between the amount of ATP on the sample and the RLU result reading on the luminometer is directly proportional to the amount of ATP collected from the sample. A high RLU reading indicates a large amount of ATP at the test location. […]
Cleaning properly results in less ATP at the location. Less ATP results in less light output during the bioluminescent reaction and consequently, a lower RLU reading. […]
The subject of experiment [2] is Staphylococcus Aureus. To be noted: within 5 minutes of contact time; cited from earlier work.
Experiment [3] concerns Pseudomonas Aeruginosa. As to conditions: within 5 minutes of contact time; cited from earlier work.
Experiment [4] has as its system residual ATP (ATP-containing contamination including bacteria). To be noted: granite tile, 3 ml soaked through paper towel, after 5 minutes; before treatment Area 1: 1057, Area 2: 998.
From the text: Therefore, the surfaces to be evaluated had to be thoroughly cleaned and tested for contamination prior to commencing the test.
Test results are presented as Relative Light Units (“RLU”). RLU is the unit of measurement used in bioluminescence. When a test swab is activated, a bioluminescent reaction occurs, generating light output. Luminometers measure and quantify that light with an RLU output.
A high RLU reading indicates a large amount of ATP at the test location. This in turn indicates improper cleaning and the presence of contaminants.
Cleaning properly results in less ATP at the location. Less ATP results in less light output during the bioluminescent reaction and consequently, a lower RLU reading.
A granite floor tile was selected and thoroughly disinfected with hot water and a cocktail of disinfectants. It was then tested for ATP until the readings consistently indicated RLU of 0-2 which represented a surface free of ATP within the margins of error.
A sample of seemingly contaminated water was collected from a pond and left stagnant for solid settlement for 3 days.
The granite tile was covered with a paper towel and the water was added to the towel in a dropwise manner until it was completely soaked. After a few hours, soaking was repeated, and the specimen was left to dry overnight. […]

In the case of `CC(C)O` [commercial 70% Iso-Propyl Alcohol, Iso-Propyl Alcohol], the “ATP reading after treatment” value in experiment [1] was 22 RLU.
On to `OO` [0.6 wt. % hydrogen peroxide solution, hydrogen peroxide], for which the “reduction against Staphylococcus Aureus” value in experiment [2] was about 1 Log. For the same compound, the “reduction against Pseudomonas Aeruginosa” value in experiment [3] was under 1 Log.
Take `OO` [6 weight percent hydrogen peroxide solution]: the “reduction against Staphylococcus Aureus” value in experiment [2] is listed as about 3 Log. Moreover, in experiment [3], the “reduction against Pseudomonas Aeruginosa” value was under 2 Log.
As for `OO` [hydrogen peroxide with no other additive, hydrogen peroxide], in experiment [4], the “ATP reading after treatment” value is given as 82 RLU.
